Measurements taken from PubChem BioAssay (NCI).
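Five compound concentrations were applied to cells in 96-well plates for 48 hours; endpoints were derived by simple linear interpolation of the resulting dose-response curve. TGI: total growth inhibition.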 Where a SMILES comes first, the peptide text is derived from it. The star is where a group is joined. Boc = CC(C)(C)OC(=O)*; OBn = c1ccc(CO*)cc1

Experiments:
Experiment in all cases: DTP human tumour cell line panel, 48 h
[1] = system: 786-0 renal
[2] = system: MOLT-4 leukemia
[3] = system: HOP-62 NSCLC
[4] = system: HS 578T breast
[5] = system: MALME-3M melanoma
[6] = system: KM12 colon
[7] = system: SK-OV-3 ovarian
[8] = system: DU-145 prostate
[9] = system: NCI-H522 lung
[10] = system: M14 melanoma

Molecule `CC(C)CC(NC(=O)OC(C)(C)C)C(=O)NC(CC(=O)OCc1ccccc1)C(=O)OCc1ccccc1` (stereo not drawn) (Boc-Leu-Asp(OBn)-OBn; configuration not given here) has a TGI [1] of 49.6 µM, a TGI [2] of 76.9 µM and a TGI [3] of over 100 µM. For the same molecule, the TGI [4] was over 100 µM, the TGI [5] was over 100 µM and the TGI [6] was over 100 µM. It also gave a TGI [7] of over 100 µM, a TGI [8] of over 100 µM and a TGI [9] of 79.2 µM. For the same molecule, the TGI [10] was 38.6 µM.

`O=C1C=C2CCC[C@H]3OC(=O)C[C@@]23CC1` was tested, and the TGI [1] was over 100 µM, the TGI [2] was over 100 µM and the TGI [3] was over 100 µM. For the same molecule, the TGI [4] was over 100 µM, the TGI [5] was over 100 µM and the TGI [6] was over 100 µM. It also gave a TGI [7] of over 100 µM, a TGI [8] of over 100 µM and a TGI [9] of over 100 µM. The TGI [10] was over 100 µM.

For `Cc1cccc2nc3c(=O)[nH]c(=O)nc-3n(C)c12`, the TGI [1] was over 100 µM, the TGI [2] was over 100 µM and the TGI [3] was over 100 µM. For the same molecule, the TGI [4] was over 100 µM, the TGI [5] was 38.5 µM and the TGI [6] was over 100 µM. It also gave a TGI [7] of over 100 µM, a TGI [8] of over 100 µM and a TGI [9] of 87.4 µM. For the same molecule, the TGI [10] was over 100 µM.

`CCOC(=O)c1c(C)nc2c(c1-c1cn(-c3ccccc3)nc1-c1ccccc1)C(=O)c1ccccc1-2` gave a TGI [1] of over 100 µM, a TGI [2] of over 100 µM and a TGI [3] of over 100 µM. The TGI [4] was over 100 µM, the TGI [5] was over 100 µM and the TGI [6] was over 100 µM. For the same molecule, the TGI [7] was over 100 µM, the TGI [8] was over 100 µM and the TGI [9] was over 100 µM. The TGI [10] was over 100 µM.

Work on `OCC(CCc1ccccc1I)C1=CCC2(CC1)OCCO2` (stereo not given) yielded a TGI [1] of 42.5 µM, a TGI [2] of over 100 µM and a TGI [3] of 37.4 µM. The TGI [4] was 45.4 µM, the TGI [5] was 33.6 µM and the TGI [6] was 31 µM. For the same molecule, the TGI [7] was over 100 µM, the TGI [8] was 48 µM and the TGI [9] was 30.3 µM. It also gave a TGI [10] of 35.3 µM.

In the case of `Cc1ccc(NC2=NCCO2)c2c1CCC2`, the TGI [1] is reported as over 100 µM, the TGI [2] is reported as over 100 µM and the TGI [3] is reported as over 100 µM. For the same molecule, the TGI [4] was over 100 µM, the TGI [5] was 92.4 µM and the TGI [6] was 63.9 µM. The TGI [7] was over 100 µM, the TGI [8] was over 100 µM and the TGI [9] was over 100 µM. The TGI [10] was 57 µM.

In the case of `Oc1ccccc1C1C=C(c2ccccc2)NC(N2CCCCC2)=C1c1nc2ccccc2[nH]1` (stereo not given), the TGI [1] is reported as 25.7 µM, the TGI [2] is reported as 57.6 µM and the TGI [3] is reported as 27.4 µM. The TGI [4] was 31 µM, the TGI [5] was 29.6 µM and the TGI [6] was 31.3 µM. For the same molecule, the TGI [7] was 26.4 µM, the TGI [8] was 66.6 µM and the TGI [9] was 27.7 µM. It also gave a TGI [10] of 25.9 µM.

`Cc1ccc(-c2cc(O)c3nc4ccccc4n3c2)cc1` was tested, and the TGI [1] was over 100 µM, the TGI [2] was over 100 µM and the TGI [3] was over 100 µM. For the same molecule, the TGI [4] was over 100 µM, the TGI [5] was over 100 µM and the TGI [6] was over 100 µM. The TGI [7] was over 100 µM, the TGI [8] was over 100 µM and the TGI [9] was over 100 µM. For the same molecule, the TGI [10] was over 100 µM.

Work on `O=CC(O)C(O)C(O)C1CNC(=S)O1` (stereo not given) yielded a TGI [1] of over 100 µM, a TGI [2] of over 100 µM and a TGI [3] of over 100 µM. It also gave a TGI [4] of over 100 µM, a TGI [5] of over 100 µM and a TGI [6] of over 100 µM. It also gave a TGI [7] of over 100 µM, a TGI [8] of over 100 µM and a TGI [9] of over 100 µM. For the same molecule, the TGI [10] was over 100 µM.

For `NC(Cc1c[nH]c2cc([N+](=O)[O-])ccc12)C(=O)O` (stereo not given), the TGI [1] was over 100 µM, the TGI [2] was over 100 µM and the TGI [3] was over 100 µM. For the same molecule, the TGI [4] was over 100 µM, the TGI [5] was over 100 µM and the TGI [6] was over 100 µM. For the same molecule, the TGI [7] was over 100 µM, the TGI [8] was over 100 µM and the TGI [9] was over 100 µM. It also gave a TGI [10] of over 100 µM.

`CC1(C)CC2(C)CC1CC2(O)c1ccccc1` (stereo not given) was tested, and the TGI [1] was over 100 µM, the TGI [2] was over 100 µM and the TGI [3] was over 100 µM. For the same molecule, the TGI [4] was over 100 µM, the TGI [5] was over 100 µM and the TGI [6] was over 100 µM. For the same molecule, the TGI [7] was over 100 µM, the TGI [8] was over 100 µM and the TGI [9] was over 100 µM. For the same molecule, the TGI [10] was over 100 µM.

`O=C(O)CC[P+](c1ccccc1)(c1ccccc1)c1ccccc1` gave a TGI [1] of over 100 µM, a TGI [2] of over 100 µM and a TGI [3] of over 100 µM. The TGI [4] was over 100 µM, the TGI [5] was over 100 µM and the TGI [6] was over 100 µM. It also gave a TGI [7] of over 100 µM, a TGI [8] of over 100 µM and a TGI [9] of over 100 µM. For the same molecule, the TGI [10] was over 100 µM.

For `COC(=O)CCc1c(Cc2ccc[nH]2)[nH]c(C(=O)OCc2ccccc2)c1C`, the TGI [1] was 31.4 µM, the TGI [2] was 52.7 µM and the TGI [3] was 39.9 µM. The TGI [4] was 88.5 µM, the TGI [5] was 38.3 µM and the TGI [6] was 35.7 µM. The TGI [7] was over 100 µM, the TGI [8] was over 100 µM and the TGI [9] was 54.4 µM. For the same molecule, the TGI [10] was 30.4 µM.
